ChEMBL document CHEMBL1125408 (J Med Chem, 1992)
Calls of active or inactive are those of the source.

Columns and labels:
[1] = target: T1, Muscarinic acetylcholine receptor M1 (Mus musculus, UniProt P12657); assay: biochemical
T1 sequence (P12657 whole entry): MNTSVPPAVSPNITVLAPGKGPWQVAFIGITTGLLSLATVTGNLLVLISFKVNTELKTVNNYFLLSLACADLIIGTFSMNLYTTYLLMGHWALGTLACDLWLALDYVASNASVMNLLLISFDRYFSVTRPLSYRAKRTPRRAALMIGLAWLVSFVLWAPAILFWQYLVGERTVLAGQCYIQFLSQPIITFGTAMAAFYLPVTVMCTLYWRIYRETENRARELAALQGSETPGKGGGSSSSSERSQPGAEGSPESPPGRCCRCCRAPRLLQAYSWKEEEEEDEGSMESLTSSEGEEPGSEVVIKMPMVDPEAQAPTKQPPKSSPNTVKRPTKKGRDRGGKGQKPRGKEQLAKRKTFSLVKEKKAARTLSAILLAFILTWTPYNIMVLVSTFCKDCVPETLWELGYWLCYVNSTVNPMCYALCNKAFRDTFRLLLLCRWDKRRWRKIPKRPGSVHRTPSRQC
Description: Compound was evaluated for the competitive inhibition of [3H]pirenzepine binding to Muscarinic acetylcholine receptor M1 of mouse cerebral cortex

[2] = target: T2, Muscarinic acetylcholine receptor M2 (Mus musculus, UniProt Q9ERZ4); assay: biochemical
T2 sequence (Q9ERZ4 whole entry): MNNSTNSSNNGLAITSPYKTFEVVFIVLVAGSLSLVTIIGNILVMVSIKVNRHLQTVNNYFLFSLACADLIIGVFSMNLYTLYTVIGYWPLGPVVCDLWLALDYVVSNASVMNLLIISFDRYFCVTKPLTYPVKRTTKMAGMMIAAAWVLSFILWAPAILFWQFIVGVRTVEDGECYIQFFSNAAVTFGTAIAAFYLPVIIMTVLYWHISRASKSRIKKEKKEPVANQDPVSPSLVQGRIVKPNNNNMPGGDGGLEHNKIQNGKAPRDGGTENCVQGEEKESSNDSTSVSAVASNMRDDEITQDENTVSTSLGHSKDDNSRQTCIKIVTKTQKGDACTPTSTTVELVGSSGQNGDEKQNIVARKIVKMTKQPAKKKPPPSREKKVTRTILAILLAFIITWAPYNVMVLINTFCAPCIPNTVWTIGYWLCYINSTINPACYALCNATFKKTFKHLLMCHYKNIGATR
Description: Compound was evaluated for the competitive inhibition of [3H]methylscopolamine binding to Muscarinic acetylcholine receptor M2 of mouse cerebral cortex

Rattus norvegicus [3] = species: Rattus norvegicus; assay: Concentration required to potentiate the contraction of isolated rat ileum produced by 1*10e-7 M ACh by 20 percent; IA= inactive; type: functional
Cholinesterase [4] = target: T3, Cholinesterase (Homo sapiens, UniProt P06276)
Description: The compound was evaluated for the inhibition human of Butyrylcholinesterase I

Acetylcholinesterase [5] = target: T4, Acetylcholinesterase (Homo sapiens, UniProt P22303)
Description: Inhibition of human acetylcholinesterase-I

Mus musculus [6] = species: Mus musculus
Description: Compound was evaluated for the binding affinity by displacing [3H]methylscopolamine ([3H]-NMS) from mouse cerebral cortex tissue.

Mus musculus [7] = species: Mus musculus; remark: listed apart in the source
[8] = NMS/OXO-M values are calculated from the ratio of the respective apparent Ki values
Rattus norvegicus [9] = species: Rattus norvegicus
Acetylcholinesterase [10] = target: T4, Acetylcholinesterase; remark: listed apart in the source
Description: The compound was evaluated for the inhibition of human Acetylcholinesterase

Cholinesterase [11] = target: T3, Cholinesterase; remark: listed apart in the source
Description: The compound was evaluated for the inhibition human of Butyrylcholinesterase

[12] = target: T1, Muscarinic acetylcholine receptor M1; assay: biochemical; remark: listed apart in the source
Description: Compound was evaluated for the competitive inhibition of [3H]pirenzepine binding to muscarinic acetylcholine receptor M1 of mouse cerebral cortex

[13] = target: T5, Muscarinic acetylcholine receptor M2 (Mus musculus) (UniProt Q9ERZ4); assay: Selectivity was defined as the ratio between M2-IC50/M1-IC50
T5 sequence (whole entry): T2 sequence (Q9ERZ4 whole entry)

Cholinesterase [14] = target: T3, Cholinesterase; assay: Ratio of IC50 values obtained for BChE/ AChE
[15] = target: T2, Muscarinic acetylcholine receptor M2; assay: biochemical; remark: listed apart in the source
Description: Compound was evaluated for the competitive inhibition of [3H]methylscopolamine binding to muscarinic acetylcholine receptor M2 of mouse cerebral cortex

Rattus norvegicus [16] = species: Rattus norvegicus; assay: Concentration required to potentiate the contraction of isolated rat ileum produced by 1*10e-7 M ACh by 20 percent; IA=Inactive; type: functional

T3 sequence (P06276 whole entry): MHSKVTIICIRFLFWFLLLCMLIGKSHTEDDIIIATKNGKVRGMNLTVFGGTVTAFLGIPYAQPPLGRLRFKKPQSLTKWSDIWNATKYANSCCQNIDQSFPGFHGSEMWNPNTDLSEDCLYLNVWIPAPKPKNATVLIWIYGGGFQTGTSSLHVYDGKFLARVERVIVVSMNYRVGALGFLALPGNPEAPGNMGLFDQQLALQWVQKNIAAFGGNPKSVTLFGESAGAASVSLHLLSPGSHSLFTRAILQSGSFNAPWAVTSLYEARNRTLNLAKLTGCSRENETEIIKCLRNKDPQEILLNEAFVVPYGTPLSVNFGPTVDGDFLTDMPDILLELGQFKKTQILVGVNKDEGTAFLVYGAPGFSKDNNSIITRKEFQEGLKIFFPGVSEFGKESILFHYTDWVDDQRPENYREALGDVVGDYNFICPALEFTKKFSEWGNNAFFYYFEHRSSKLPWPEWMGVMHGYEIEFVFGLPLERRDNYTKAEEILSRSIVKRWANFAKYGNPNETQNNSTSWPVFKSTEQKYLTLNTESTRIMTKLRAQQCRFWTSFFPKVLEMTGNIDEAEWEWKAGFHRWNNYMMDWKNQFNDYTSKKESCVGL
T4 sequence (P22303 whole entry): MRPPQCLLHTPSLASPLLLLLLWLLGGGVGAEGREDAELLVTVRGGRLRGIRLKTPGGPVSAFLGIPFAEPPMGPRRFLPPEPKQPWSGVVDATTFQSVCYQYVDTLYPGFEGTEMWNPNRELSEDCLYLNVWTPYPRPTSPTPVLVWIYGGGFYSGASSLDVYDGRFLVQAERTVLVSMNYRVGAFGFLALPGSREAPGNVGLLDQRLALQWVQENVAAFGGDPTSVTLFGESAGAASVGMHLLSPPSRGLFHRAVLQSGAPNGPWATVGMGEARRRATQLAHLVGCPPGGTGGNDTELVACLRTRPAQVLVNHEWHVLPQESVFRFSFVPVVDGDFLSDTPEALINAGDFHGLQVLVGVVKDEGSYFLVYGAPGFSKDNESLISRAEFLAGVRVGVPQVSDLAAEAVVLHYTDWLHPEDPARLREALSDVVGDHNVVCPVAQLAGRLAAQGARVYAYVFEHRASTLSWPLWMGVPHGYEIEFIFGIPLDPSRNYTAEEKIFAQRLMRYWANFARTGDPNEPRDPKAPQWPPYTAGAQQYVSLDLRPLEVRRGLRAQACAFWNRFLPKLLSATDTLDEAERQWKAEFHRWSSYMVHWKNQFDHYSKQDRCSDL

Structure (SMILES)	IC50 [1] [nM]	IC50 [2] [nM]	IC50 (Cholinesterase [4]) [nM]	IC50 (Acetylcholinesterase [5]) [nM]	Ileal activity (Rattus norvegicus [9]) [µM]	IC50 (Acetylcholinesterase [10]) [nM]	IC50 [12] [nM]	IC50 [15] [nM]	also measured
CN(C)Cc1ccc(CSCCCCCCSCc2ccc(CN(C)C)o2)o1	540	580	2900	740					Ileal activity (Rattus norvegicus [3]): inactive
CN(C)Cc1ccc(CSCCCCSCc2ccc(CN(C)C)o2)o1	630	2200	3100	210	<1				Ki (Mus musculus [6]): 20000 nM; Ki (Mus musculus [7]): 1200 nM; Ratio [8]: 17
CN(C)Cc1ccc(CSCCCSCc2ccc(CN(C)C)o2)o1	1100	1500	4100	330	<0.1				
CN(C)Cc1ccc(CSCCNC(=O)NCCSCc2ccc(CN(C)C)o2)o1				48000					
CN(C)Cc1ccc(CSCCCCCSCc2ccc(CN(C)C)o2)o1	810	520	3600	900	<0.1				
CN(C)Cc1ccc(CSCCNC(=NC#N)NCCSCc2ccc(CN(C)C)o2)o1	660	470	2400	290	<0.01				
CN(C)Cc1ccc(CSCC/N=C/NCCSCc2ccc(CN(C)C)o2)o1				3000					
CN(C)Cc1ccc(CSCCCCCCCCCSCc2ccc(CN(C)C)o2)o1					<0.1	460	560	400	IC50 (Cholinesterase [11]): 1000 nM; Ratio [13]: 0.71; Ratio (Cholinesterase [14]): 2.2
CN(C)Cc1ccc(CSCCNc2cc(NCCSCc3ccc(CN(C)C)o3)c([N+](=O)[O-])cc2[N+](=O)[O-])o1					<0.05	28	490	590	IC50 (Cholinesterase [11]): 25 nM; Ratio (Cholinesterase [14]): 0.89
CN(C)Cc1ccc(CSCCCCCCCCCCSCc2ccc(CN(C)C)o2)o1						1300			
CN(C)Cc1ccc(CSCCCCCCCSCc2ccc(CN(C)C)o2)o1						610	410	710	IC50 (Cholinesterase [11]): 1900 nM; Ileal activity (Rattus norvegicus [16]): inactive; Ratio [13]: 1.7; Ratio (Cholinesterase [14]): 3.1
CN(C)Cc1ccc(CSCCCCCCCCSCc2ccc(CN(C)C)o2)o1					<0.1	470	310	540	IC50 (Cholinesterase [11]): 1900 nM; Ratio [13]: 1.8; Ratio (Cholinesterase [14]): 4
CN(C)Cc1ccc(CSCc2ccccc2CSCc2ccc(CN(C)C)o2)o1				9000					
CN(C)Cc1ccc(CSCc2ccc(CN(C)C)o2)o1				44000					
CN(C)Cc1ccc(CSCCSCc2ccc(CN(C)C)o2)o1	1100	1400	4300	500	<0.1				
CN(C)Cc1ccc(CSCc2cccc(CSCc3ccc(CN(C)C)o3)c2)o1				1500					
CN(C)Cc1ccc(CSCc2ccc(-c3ccc(CSCc4ccc(CN(C)C)o4)cc3)cc2)o1	680	1600	1300	180	<0.01				
CN(C)Cc1ccc(CSCCN/C=C(/NCCSCc2ccc(CN(C)C)o2)[N+](=O)[O-])o1					<0.1	74	900	500	IC50 (Cholinesterase [11]): 1300 nM; Ratio [13]: 0.55; Ratio (Cholinesterase [14]): 18
CNC(=O)Oc1ccc2c(c1)[C@]1(C)CCN(C)[C@@H]1N2C [PHYSOSTIGMINE]					<0.005		37000	160000	
CN(C)Cc1ccc(CSCc2ccc(CSCc3ccc(CN(C)C)o3)cc2)o1	540	550	2700	260					Ileal activity (Rattus norvegicus [3]): inactive
